Laboratory results from ChEMBL document CHEMBL6177994 (J Med Chem, 2025).
The source made the active and inactive calls. The rule behind the calls is not given here.

Tests used:
Cytochrome P450 3A4 = Cytochrome P450 3A4 (Homo sapiens, UniProt P08684); experiment: Inhibition of CYP3A4 in human liver microsomes using midazolam as substrate at 10 uM incubated for 15 mins in presence of NADPH by LC/MS analysis; type: ADME, Microsome; conditions: 0.25 h
[1] = Plasma protein binding in human at 2 uM by LC-MS/MS analysis; type: ADME, cell-free; conditions: read-out: PPB
[2] = Clearance in male Beagle dog at 1 mg/kg, iv measured up to 24 hrs by LC-MS/MS analysis; type: ADME, organism-based, Canis lupus familiaris; conditions: in vivo
HEK293 = experiment: Antiproliferative activity against HEK293 cells harbouring wild type KRAS assessed as inhibition of cell growth measured after 72 hrs by Cell titer glo method; type: toxicity, cell-based; conditions: human, hek293, 72 h
[3] = Half life in male cynomolgus monkey at 1 mg/kg, iv measured up to 24 hrs by LC-MS/MS analysis; type: ADME, organism-based, Macaca fascicularis; conditions: in vivo
[4] = Antitumor activity against human GP2d cells xenografted in female Balb/c nude mouse model assessed as tumor growth inhibition at 3 mg/kg, iv QW measured after 28 days relative to control; type: functional; conditions: 672 h, time 28 day, read-out: TGI
[5] = Volume of distribution at steady state in male cynomolgus monkey at 1 mg/kg, iv measured up to 24 hrs by LC-MS/MS analysis; type: ADME, organism-based, Macaca fascicularis; conditions: in vivo, read-out: Vdss
NCI-H358 = experiment: Antiproliferative activity against human NCI-H358 cells harbouring KRAS G12C mutant assessed as inhibition of cell growth measured after 72 hrs by Cell titer glo method; type: functional, cell-based
[6] = Toxicity in female Balb/c nude mouse xenografted with human GP2d cells assessed as change in body weight at 1 to 10 mg/kg, iv Q2W measured after 28 days; type: organism-based; conditions: in vivo, 672 h, dose 1-10 mg/kg, time 28 day
AGS = experiment: Antiproliferative activity against human AGS cells harbouring KRAS G12D mutant assessed as inhibition of cell growth measured after 72 hrs by Cell titer glo method; type: functional, cell-based
ASPC1 [7] = experiment: Antiproliferative activity against human ASPC1 cells harbouring KRAS G12D mutant assessed as inhibition of cell growth measured after 72 hrs by Cell titer glo method; type: functional, cell-based; conditions: ASPC1, 72 h
NCI-H727 = experiment: Antiproliferative activity against human NCI-H727 cells harbouring KRAS G12V mutant assessed as inhibition of cell growth measured after 72 hrs by Cell titer glo method; type: functional, cell-based
[8] = Elimination half life in male ICR mouse pancreas at 10 mg/kg, iv measured up to 336 hrs by LC-MS/MS analysis; type: ADME, organism-based; conditions: read-out: beta t1/2 (converted)
Cytochrome P450 2C8 = Cytochrome P450 2C8 (Homo sapiens, UniProt P10632); experiment: Inhibition of CYP2C8 in human liver microsomes using amodiaquine as substrate at 10 uM incubated for 20 mins in presence of NADPH by LC/MS analysis; type: ADME, Microsome
Chain of Cytochrome P450 2C8 (P10632 whole entry): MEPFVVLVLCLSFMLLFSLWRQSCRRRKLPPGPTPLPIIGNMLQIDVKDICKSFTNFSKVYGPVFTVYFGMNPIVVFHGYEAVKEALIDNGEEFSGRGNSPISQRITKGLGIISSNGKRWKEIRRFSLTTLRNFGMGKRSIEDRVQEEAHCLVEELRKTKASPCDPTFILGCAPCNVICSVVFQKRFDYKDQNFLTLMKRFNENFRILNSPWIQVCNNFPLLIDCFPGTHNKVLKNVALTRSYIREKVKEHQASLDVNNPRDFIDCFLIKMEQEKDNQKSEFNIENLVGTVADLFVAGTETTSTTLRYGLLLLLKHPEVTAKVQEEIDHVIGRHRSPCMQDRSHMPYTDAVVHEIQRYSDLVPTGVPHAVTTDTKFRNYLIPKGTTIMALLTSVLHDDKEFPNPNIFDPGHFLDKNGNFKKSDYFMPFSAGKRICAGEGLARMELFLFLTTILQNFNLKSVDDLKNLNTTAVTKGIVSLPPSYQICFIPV

[9] = Metabolic stability in monkey liver microsomes assessed as intrinsic clearance at 1 uM preincubated for 3 mins with NADPH and measured up to 60 mins by LC-MS/MS analysis; type: ADME, Macaca mulatta, Microsome; conditions: rhesus monkey, time < 63 min, read-out: CLH
[10] = Drug concentration in male Balb/c nude mouse plasma xenografted with human GP2d cells at 10 mg/kg, iv administered as single dose measured after 6 hrs by LC-MS/MS analysis; type: ADME, organism-based
SNU-407 = experiment: Antitumor activity against human SNU-407 cells harbouring KRAS G12D mutant xenografted in female Balb/c nude mouse model assessed as tumor regression at 1 to 10 mg/kg, iv QW administered weekly and measured after 28 days; type: functional, organism-based; conditions: dose 1-10 mg/kg, time 28.0 day
CCRF-CEM = experiment: Antitumor activity against human CCRF-CEM cells harbouring KRAS G12D mutant xenografted in female Balb/c nude mouse model assessed as tumor regression at 1 to 10 mg/kg, iv QW administered weekly and measured after 28 days; type: functional, organism-based; conditions: dose 1-10 mg/kg, time 28.0 day
[11] = Elimination half life in male ICR mouse colon at 10 mg/kg, iv measured up to 336 hrs by LC-MS/MS analysis; type: ADME, organism-based; conditions: read-out: beta t1/2 (converted)
[12] = Metabolic stability in dog liver microsomes assessed as intrinsic clearance at 1 uM preincubated for 3 mins with NADPH and measured up to 60 mins by LC-MS/MS analysis; type: ADME, Canis lupus familiaris, Microsome; conditions: time < 63 min, read-out: CLH
ASPC1 [13] = experiment: Antitumor activity against human ASPC1 cells harbouring KRAS G12D mutant xenografted in female Balb/c nude mouse model assessed as tumor regression at 1 to 20 mg/kg, iv QW administered weekly and measured after 28 days; type: functional, organism-based; conditions: dose 1-20 mg/kg, time 28.0 day
[14] = AUC (0 to t) in male Beagle dog at 1 mg/kg, iv measured up to 24 hrs by LC-MS/MS analysis; type: ADME, organism-based, Canis lupus familiaris; conditions: in vivo
[15] = system: Protein cereblon/GTPase KRas (Homo sapiens), P01116+Q96SW2 [G12D]; experiment: In vivo PROTAC activity at CRBN/KRAS G12D mutant in male Balb/c nude mouse xenografted with human GP2d cells assessed as inhibition of DUSP4 level at 10 mg/kg, iv measured after 7 days; type: functional, organism-based; conditions: time 7.0 day
Chain of Protein cereblon/GTPase KRas (Homo sapiens), P01116+Q96SW2 [G12D] (P01116 whole entry G12D): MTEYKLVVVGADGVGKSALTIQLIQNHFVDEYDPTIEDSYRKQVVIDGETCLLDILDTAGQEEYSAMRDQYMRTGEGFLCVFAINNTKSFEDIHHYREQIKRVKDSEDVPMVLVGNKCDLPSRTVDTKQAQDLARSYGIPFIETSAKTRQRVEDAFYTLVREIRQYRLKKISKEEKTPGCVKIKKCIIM
Chain of Protein cereblon/GTPase KRas (Homo sapiens), P01116+Q96SW2 [G12D] (Q96SW2 whole entry partner): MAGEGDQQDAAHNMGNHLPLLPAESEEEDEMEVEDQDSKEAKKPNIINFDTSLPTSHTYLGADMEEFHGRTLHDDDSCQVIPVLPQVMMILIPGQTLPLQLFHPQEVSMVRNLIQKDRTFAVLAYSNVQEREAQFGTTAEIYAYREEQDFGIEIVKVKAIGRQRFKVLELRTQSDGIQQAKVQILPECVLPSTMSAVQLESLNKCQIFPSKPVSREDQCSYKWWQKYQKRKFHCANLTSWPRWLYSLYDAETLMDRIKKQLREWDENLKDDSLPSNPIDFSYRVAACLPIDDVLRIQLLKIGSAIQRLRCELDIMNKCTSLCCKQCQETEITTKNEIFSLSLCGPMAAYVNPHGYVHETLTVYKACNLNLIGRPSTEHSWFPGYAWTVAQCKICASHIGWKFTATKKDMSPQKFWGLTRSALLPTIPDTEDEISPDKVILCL

[16] = Metabolic stability in mouse liver microsomes assessed as intrinsic clearance at 1 uM preincubated for 3 mins with NADPH and measured up to 60 mins by LC-MS/MS analysis; type: ADME, Microsome; conditions: time < 63 min, read-out: CLH
SK-LU-1 = experiment: Antiproliferative activity against human SK-LU-1 cells harbouring KRAS G12D mutant assessed as inhibition of cell growth measured after 72 hrs by Cell titer glo method; type: functional, cell-based
[17] = system: Protein cereblon/GTPase KRas (Homo sapiens), P01116+Q96SW2 [G12D]; experiment: In vivo PROTAC activity at CRBN/KRAS G12D mutant in male Balb/c nude mouse xenografted with human GP2d cells assessed as inhibition of ERK phosphorylation level at 10 mg/kg, iv measured after 7 days; type: functional, organism-based; conditions: time 7.0 day
[18] = system: Protein cereblon/GTPase KRas (Homo sapiens), P01116+Q96SW2 [G12D]; experiment: In vivo PROTAC activity at CRBN/KRAS G12D mutant in male Balb/c nude mouse xenografted with human PK-59 cells assessed as increase in cleaved caspase 7 level at 10 mg/kg, iv measured up to 168 hrs; type: functional, organism-based
SW1990 = experiment: Antiproliferative activity against human SW1990 cells harbouring KRAS G12D mutant assessed as inhibition of cell growth measured after 72 hrs by Cell titer glo method; type: functional, cell-based
[19] = Plasma protein binding in mouse at 2 uM by LC-MS/MS analysis; type: ADME, cell-free; conditions: read-out: PPB
[20] = Stability in human hepatocyte assessed as intrinsic clearance at 100 uM measured up to 120 mins by LC-MS/MS analysis; type: ADME, cell-based; conditions: hepatocytes, read-out: CLH
[21] = system: Protein cereblon/GTPase KRas (Homo sapiens), P01116+Q96SW2 [G12D]; experiment: PROTAC activity at CRBN/KRAS G12D mutant in human ASPC1 cells assessed as induction of KRAS G12D mutant degradation at 5 nM preincubated with MRTX1133 followed by compound addition and measured after 24 hrs by Western blot analysis; type: cell-based
[22] = Antitumor activity against human GP2d cells xenografted in female Balb/c nude mouse model assessed as tumor growth inhibition at 10 mg/kg, iv QW administered […] and measured after 28 days relative to control; type: functional; conditions: 672 h, time 28 day, read-out: TGI
[23] = Drug concentration in male Balb/c nude mouse plasma xenografted with human GP2d cells at 10 mg/kg, iv administered as single dose measured after 168 hrs by LC-MS/MS analysis; type: ADME, organism-based

Chain of Cytochrome P450 3A4 (P08684 whole entry): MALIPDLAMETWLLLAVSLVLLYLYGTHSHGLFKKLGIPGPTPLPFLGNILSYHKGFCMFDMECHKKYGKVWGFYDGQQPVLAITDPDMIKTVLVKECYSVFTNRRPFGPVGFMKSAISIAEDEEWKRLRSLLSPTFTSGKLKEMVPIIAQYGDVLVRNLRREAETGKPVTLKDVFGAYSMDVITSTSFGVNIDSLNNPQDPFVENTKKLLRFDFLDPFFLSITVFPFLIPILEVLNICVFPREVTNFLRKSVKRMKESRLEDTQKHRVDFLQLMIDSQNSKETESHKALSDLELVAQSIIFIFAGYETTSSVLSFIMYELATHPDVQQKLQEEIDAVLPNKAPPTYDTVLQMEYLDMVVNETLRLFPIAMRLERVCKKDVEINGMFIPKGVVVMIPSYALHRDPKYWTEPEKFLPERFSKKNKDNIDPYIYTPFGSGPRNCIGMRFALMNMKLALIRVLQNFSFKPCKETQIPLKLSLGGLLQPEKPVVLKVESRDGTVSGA

In the case of `C#Cc1c(F)ccc2cc(O)cc(-c3ncc4c(N5CC6CCC(C5)N6)nc(OCC5(CN6CCC7(CC6)CC(N6CCC(c8cc9c(cc8F)c(N8CCC(=O)NC8=O)nn9C)CC6)C7)CC5)nc4c3F)c12`, the “inhibition (INH)” value (Cytochrome P450 3A4) is reported as “Not_active”, the fraction unbound at 2 µM [1] is reported as less than 0.05 and the clearance [2] is reported as 33 mL/min/kg. The Activity (HEK293) was “Non-toxic”, the half-life [3] was 12.4 h and the inhibition in vivo at 3 mg/kg [4] was 96.9%. The Vd [5] was 12.7 L/kg, the Activity (NCI-H358) was “Weak_effect; Compound Showed Weaker Potency In Antiproliferative Activity Compared To Mrtx1133” and the Activity [6] was “Non-toxic”. For the same compound, the IC50 (AGS) was 1.01 nM, the IC50 (ASPC1 [7]) was 4.19 nM and the Activity (NCI-H727) was “Weak_effect; Compound Showed Weaker Potency In Antiproliferative Activity Compared To Mrtx1133”. The half-life [8] was 330 h, the “inhibition (INH)” value (Cytochrome P450 2C8) was “Not_active” and the CLint scaled at 1 µM [9] was 4.3 mL/min/kg. The concentration at 6 h [10] was 113 ng/mL, the Activity (SNU-407) was “Weak_effect” and the Activity (CCRF-CEM) was “Weak_effect”. For the same compound, the half-life [11] was 94.6 h, the CLint scaled at 1 µM [12] was 4.6 mL/min/kg and the Activity (ASPC1 [13]) was “Weak_effect”. For the same compound, the AUC(0-t) at 24 h [14] was 0.458 µM·h, the Activity [15] was “Active” and the CLint scaled at 1 µM [16] was 12.7 mL/min/kg. For the same compound, the Activity (SK-LU-1) was “Active; Compound Showed Stronger Antiproliferative Activity Compared To Mrtx1133”, the Activity [17] was “Active” and the Activity [18] was “Active”. The Activity (SW1990) was “Active; Compound Showed Stronger Antiproliferative Activity Compared To Mrtx1133”, the fraction unbound at 2 µM [19] was less than 0.05 and the CLint scaled at 100 µM [20] was 5.8 mL/min/kg. For the same compound, the Activity [21] was “Active”, the inhibition in vivo at 10 mg/kg [22] was 94.7% and the concentration at 168 h [23] was 4.1 ng/mL.
